What was measured:
Format in all cases: in vivo
kochia (Bassia scoparia) = experiment: Test A1 postemergence, kochia; conditions: for Plant response rating, Kochia: Postemergence
In short: (§1)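 Plants were grown in a loam soil/sand blend, with test chemicals formulated in a non-phytotoxic solvent mixture containing surfactant. Preemergence treatment (corn) was a directed soil spray at planting. Postemergence treatment was applied to plants 2 to 10 cm tall at the one- to two-leaf stage.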

soybean (Glycine max) = experiment: Test A1 postemergence, soybean; conditions: for Plant response rating, Soybean: Postemergence
In short: as §1

[1] = system: ragweed (common ragweed, Ambrosia artemisiifolia); experiment: Test A1 postemergence, ragweed; conditions: for Plant response rating, Ragweed: Postemergence
In short: (§2)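 Pre: seeds in loam/sand blend, directed soil spray. Post: potted plants, same soil, 2–10 cm, 1–2 leaf stage. Chemicals in non-phytotoxic solvent + surfactant for both.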

[2] = system: blackgrass (Alopecurus myosuroides); experiment: Test A1 preemergence, blackgrass
In short: as §2

[3] = system: wheat (Triticum aestivum); experiment: Test A1 postemergence, wheat; conditions: for Plant response rating, Wheat: Postemergence
In short: as §1

[4] = system: Pigweed, Palmer (palmer amaranth, palmer pigweed, Amaranthus palmeri); experiment: Test A1 postemergence, Pigweed, Palmer; conditions: for Plant response rating, Pigweed, Palmer: Postemergence
In short: as §2

[5] = system: goosegrass (Eleusine indica); experiment: Test A1 preemergence, goosegrass
In short: as §2

[6] = 31 g ai/ha, 0 to 100 scale (0 no effect, 100 complete control), 10 days
[7] = 31 g ai/ha, 0 to 100 scale (0 no effect, 100 complete control)
[8] = 125 g ai/ha, 0 to 100 scale, 0 no effect, 100 complete control
[9] = 31 g ai/ha, postemergence, 0 to 100 scale (0 no effect, 100 complete control)

Compound | Plant response rating, Kochia (kochia (Bassia scoparia); [6]) | Plant response rating, Kochia (kochia (Bassia scoparia); 125 g ai/ha, 0 to 100 scale) | Plant response rating, Soybean (soybean (Glycine max); [6]) | Plant response rating, Soybean (soybean (Glycine max); 125 g ai/ha, 0 to 100 scale) | Plant response rating, Ragweed [1, 6] | Plant response rating, Ragweed ([1]; 125 g ai/ha, 0 to 100 scale) | Plant response rating, Blackgrass [2, 7] | Plant response rating, Blackgrass [2, 8] | Plant response rating, Wheat [3, 6] | Plant response rating, Wheat ([3]; 125 g ai/ha, 0 to 100 scale) | Plant response rating, Pigweed, Palmer [4, 6] | Plant response rating, Pigweed, Palmer ([4]; 125 g ai/ha, 0 to 100 scale) | Plant response rating, Goosegrass [5, 7] | Plant response rating, Goosegrass [5, 8] | Kochia plant response rating (kochia (Bassia scoparia); [9]) | Soybean plant response rating (soybean (Glycine max); [9]) | Ragweed plant response rating [1, 9] | Wheat plant response rating [3, 9] | Pigweed, Palmer plant response rating [4, 9]
Cc1cc(C)c(C2=NOC(OCC(C)C)C2)cc1NS(=O)(=O)C(F)(F)F (stereo not shown) [Compound 322] | 10 | 30 | 20 | 30 | 70 | 80 | 0 | 70 | 0 | 30 | 0 | 50 | 0 | 90 |  |  |  |  | 
Cc1cc(C)c(N(COC(=O)C(C)(C)C)S(=O)(=O)C(F)(F)F)cc1C(=O)N1CCOCC1 [Compound 362] | 50 | 80 | 50 | 70 | 70 | 80 | 10 | 50 | 40 | 60 | 10 | 30 | 90 | 100 |  |  |  |  | 
CCc1cc(C)c(NS(=O)(=O)C(F)(F)F)cc1C1=NOC2CCCC12 (stereo not shown) [Compound 305] | 0 | 10 | 10 | 50 | 0 | 60 | 10 | 40 | 50 | 60 | 0 | 40 | 90 | 90 |  |  |  |  | 
CCOC(=O)N(c1cc(C(=O)N2CCOCC2)c(C)cc1C)S(=O)(=O)C(F)(F)F [Compound 363] | 50 | 70 | 60 | 60 | 60 | 70 | 50 | 90 | 40 | 60 | 0 | 10 | 100 | 100 |  |  |  |  | 
Cc1cc(C)c(C2=NOC3(C)CCCC23)cc1NS(=O)(=O)C(F)(F)F (stereo not shown) [Compound 340] | 20 | 50 | 50 | 60 | 70 | 80 | 60 | 90 | 50 | 70 | 0 | 30 | 100 | 100 |  |  |  |  | 
Cc1cc(C)c(N(S(=O)(=O)C(F)(F)F)S(=O)(=O)C(F)(F)F)cc1C1=NOC2COCC12 (stereo not shown) [Compound 296] | 20 | 40 | 30 | 40 | 20 | 30 | 10 | 60 | 0 | 30 | 0 | 20 | 40 | 90 |  |  |  |  | 
CCC1CC(c2cc(NS(=O)(=O)C(F)(F)F)c(C)cc2C)=NO1 (stereo not shown) [Compound 375] |  | 60 |  | 60 |  | 50 | 20 | 50 |  | 70 |  | 20 | 70 | 100 | 0 | 30 | 0 | 0 | 0
Cc1cc(Br)c(NS(=O)(=O)C(F)(F)F)cc1C1=NOC2(CCCC2)C1 [Compound 309] | 0 | 60 | 10 | 30 | 0 | 50 | 30 | 60 | 0 | 40 | 0 | 20 | 50 | 100 |  |  |  |  | 
COC1CCCN(C(=O)c2cc(NS(=O)(=O)C(F)(F)F)c(Cl)c(F)c2C)C1 (stereo not shown) [Compound 334] | 10 | 40 | 20 | 40 | 0 | 50 | 10 | 10 | 0 | 0 | 10 | 50 | 70 | 90 |  |  |  |  | 
Cc1cc(C(F)(F)F)c(C2=NOC3CCCC23)cc1NS(=O)(=O)C(F)(F)F (stereo not shown) [Compound 306] | 0 | 20 | 20 | 40 | 0 | 70 | 0 | 0 | 0 | 20 | 0 | 40 | 50 | 100 |  |  |  |  | 
CCC1ON=C(c2cc(NS(=O)(=O)C(F)(F)F)c(C)cc2C)C1CC (stereo not shown) [Compound 343] | 20 | 60 | 40 | 60 | 20 | 80 | 60 | 90 | 30 | 60 | 0 | 60 | 90 | 100 |  |  |  |  | 
Cc1cc(C)c(C2=NOC3CCCCCC23)cc1NS(=O)(=O)C(F)(F)F (stereo not shown) [Compound 292] | 30 | 50 | 20 | 80 | 20 | 40 | 0 | 30 | 0 | 70 | 0 | 30 | 80 | 100 |  |  |  |  | 
Cc1cc(C)c(N(COC(=O)C(C)(C)C)S(=O)(=O)C(F)(F)F)cc1C(=O)N1CCC(C)CC1 [Compound 353] | 10 | 50 | 50 | 60 | 20 | 60 | 0 | 0 | 20 | 50 | 0 | 30 | 20 | 70 |  |  |  |  | 
Cc1cc(C2CC2)c(NS(=O)(=O)C(F)(F)F)cc1C1=NOC2(CCCC2)C1 [Compound 313] | 0 | 20 | 0 | 20 | 0 | 0 | 0 | 0 | 0 | 0 | 0 | 10 | 0 | 20 |  |  |  |  | 

Source: patent US20230278972A1, “SUBSTITUTED HALOALKYL SULFONANILIDE HERBICIDES” (FMC Corporation, priority 2020, published 2023)
